The text below walks through data of PubChem BioAssay (NCI).

Common to all, as to assay: NCI anticancer screen, dose series, 48 h
Assay [1] deals with SK-MEL-5 melanoma.
For assay [2], the system named is MDA-MB-435.
In assay [3] the test system is A549 NSCLC.
Assay [4] concerns OVCAR-3 ovarian.
Assay [5] has as its system HCT-15 colon.
For assay [6], the system named is OVCAR-5 ovarian.
The test system of assay [7] is SW-620 colon.
In assay [8] the test system is K-562 leukemia.
The test system of assay [9] is SF-539 CNS.
Assay [10] has as its system LOX IMVI melanoma.
For assay [11], the system named is NCI-H226 lung.
For assay [12], the system named is PC-3 prostate.
For assay [13], the system named is SF-268 CNS.
Assay [14] relates to TK-10 renal.
For assay [15], the system named is HT29 colon.

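Protocol summary: plate cells (96-well), add compound at 5 concentrations, incubate 48 h, interpolate endpoints linearly. TGI is the concentration that stops growth completely.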

With `CCOC(=O)/C(C#N)=C/c1coc2cc(C)cc(C)c2c1=O`, the TGI in assay [1], in assay [2], in [3], in assay [4], in assay [5] and in assay [6] was above 100 µM in each case. The TGI in assay [7], in [8], in assay [9], in assay [10], in assay [11] and in [12] was above 100 µM each time. The TGI in [13], in assay [14] and in assay [15] was above 100 µM in each case.
Consider `COc1ccccc1CC(=O)C(O)(C(F)(F)F)C(F)(F)F`, for which the TGI in assay [1], in assay [2], in [3], in [4], in assay [5] and in assay [6] was above 100 µM in each case. In addition, the TGI in assay [7], in [8], in assay [9], in assay [10], in assay [11] and in assay [12] was above 100 µM in each case. The TGI in assay [13], in [14] and in assay [15] was above 100 µM in each case.
With `COc1cc2c(/C=C3/C(=O)Nc4cccc(Cl)c43)c(Cl)[nH]c2cc1C`, the TGI in assay [1] was determined as 14.3 µM; in assay [2], 3.44 µM; in [3] it was 6.23 µM; in [4], 4.29 µM; in assay [5], 4.29 µM; in assay [6] it was 14.8 µM. Moreover, the TGI in assay [7] stood at 5.25 µM; in assay [8], 3.64 µM; in [9] it was 3.38 µM; in assay [10] it was 3.68 µM; in assay [11], 7.59 µM; in assay [12], 11.8 µM. For the same compound, the TGI came out at 19.8 µM in assay [13], 3.58 µM in assay [14] and 3.96 µM in assay [15].
With `C[N+]12C=CC=C1C(N1CCCC1)c1scc(-c3ccc(Br)cc3)c12` (stereo not given), the TGI in assay [1] is 16.1 µM; in [2], 76.9 µM; in [3], above 100 µM; in assay [4], 39.1 µM; in assay [5] it was above 100 µM; in assay [6], above 100 µM. Also, the TGI is above 100 µM in [7]; above 89.9 µM in [8]; 21.9 µM in assay [9]; above 100 µM in assay [10]; above 100 µM in assay [11]; 99.2 µM in assay [12]. Moreover, the TGI is 37 µM in [13], above 100 µM in assay [14] and above 100 µM in [15].
Take `C=C1C(=O)O[C@@H]2/C=C(C)/C=C\[C@@H]3O[C@@]3(C)C[C@@H](O)C12` (stereo not given in full): the TGI is 29 µM in [1]; 39.6 µM in [2]; above 100 µM in assay [3]; 29.8 µM in [4]; 27.6 µM in assay [5]; 85.4 µM in assay [6]. Besides, the TGI came out at 17.2 µM in [7]; 20.6 µM in [8]; 26 µM in assay [9]; 22.2 µM in assay [10]; 29.7 µM in assay [11]; 73.2 µM in assay [12]. For the same compound, the figures for the TGI in assay [13], in assay [14] and in assay [15] were 84.7 µM, 16.1 µM and 26.2 µM, respectively.
As for `C[C@]12c3c4cc(NC(=O)C(=O)NCc5ccc(-c6ccccn6)nc5)cc3Oc3cc(NC(=O)C(=O)NCc5ccc(-c6ccccn6)nc5)cc(c31)OC1C=C(NC(=O)C(=O)NCc3ccc(-c5ccccn5)nc3)C=C(O4)C12` (stereo not given in full), the TGI in [1], in [2], in [3], in [4], in assay [5] and in [6] was above 100 µM in each case. Moreover, the TGI is above 100 µM in assay [7]; above 100 µM in [8]; above 100 µM in assay [9]; 70.4 µM in assay [10]; above 100 µM in [11]; above 100 µM in [12]. Further, the TGI in [13], in [14] and in assay [15] was above 100 µM throughout.
Take `COc1ccc(C(C)NNC(=O)c2ccncc2)cc1OC` (stereo not given): the TGI in assay [1], in [2], in assay [3], in assay [4], in [5] and in [6] was above 100 µM throughout. Further, the TGI in [7], in [8], in assay [9], in assay [10], in assay [11] and in assay [12] was above 100 µM each time. Further, the TGI in assay [13], in assay [14] and in [15] was above 100 µM each time.
